# Test results: ChEMBL document CHEMBL1145547, “Achiral, selective CCK2 receptor antagonists based on a 1,3,5-benzotriazepine-2,4-dione template” (Bioorg Med Chem, 2008)
# Active and inactive are the calls of the source. The calls are words filed in the database; no cut-off is given here.
# Assays:
# [1] = target: T1, Gastrin/cholecystokinin type B receptor (Homo sapiens, UniProt P32239); experiment: Displacement of [125I]BH-CCK-8S from human recombinant CCK2 receptor expressed in NIH3T3 cells; assay type: cell-based
# T1 sequence (P32239 whole entry): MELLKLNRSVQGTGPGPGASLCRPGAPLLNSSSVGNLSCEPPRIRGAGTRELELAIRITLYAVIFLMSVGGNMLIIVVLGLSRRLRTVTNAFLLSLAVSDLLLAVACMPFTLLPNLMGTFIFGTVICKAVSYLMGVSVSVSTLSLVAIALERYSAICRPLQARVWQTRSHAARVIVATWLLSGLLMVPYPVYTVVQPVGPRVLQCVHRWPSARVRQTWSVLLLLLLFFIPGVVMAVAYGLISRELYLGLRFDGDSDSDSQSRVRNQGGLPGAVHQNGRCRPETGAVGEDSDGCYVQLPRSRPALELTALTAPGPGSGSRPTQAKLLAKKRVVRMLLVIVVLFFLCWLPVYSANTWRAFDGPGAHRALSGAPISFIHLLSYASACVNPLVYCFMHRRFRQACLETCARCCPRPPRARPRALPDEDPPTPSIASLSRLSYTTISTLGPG
# [2] = target: T2, Cholecystokinin receptor type A (Homo sapiens, UniProt P32238); experiment: Displacement of [3H]L-364718 from human recombinant CCK1 receptor expressed in CHO-K1 cells; assay type: cell-based
# T2 sequence (P32238 whole entry): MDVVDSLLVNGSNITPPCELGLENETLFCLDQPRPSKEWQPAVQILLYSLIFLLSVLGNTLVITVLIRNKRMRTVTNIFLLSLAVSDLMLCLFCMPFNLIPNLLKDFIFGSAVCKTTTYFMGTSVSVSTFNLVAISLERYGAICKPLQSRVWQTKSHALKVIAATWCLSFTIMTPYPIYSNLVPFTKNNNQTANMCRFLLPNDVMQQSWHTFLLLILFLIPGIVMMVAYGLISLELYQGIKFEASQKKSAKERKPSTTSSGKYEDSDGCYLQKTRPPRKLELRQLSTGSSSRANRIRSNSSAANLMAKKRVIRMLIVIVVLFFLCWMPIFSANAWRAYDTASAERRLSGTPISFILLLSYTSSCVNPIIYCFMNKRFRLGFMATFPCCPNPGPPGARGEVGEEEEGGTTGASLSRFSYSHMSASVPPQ
# [3] = target: T3, Gastrin/cholecystokinin type B receptor (Rattus norvegicus) (UniProt P30553); experiment: Antagonist activity at CCK2 receptor in immature rat stomach assessed as pentagastrin-induced acid secretion at 1 uM; assay type: functional, tissue-based
# T3 sequence (whole entry): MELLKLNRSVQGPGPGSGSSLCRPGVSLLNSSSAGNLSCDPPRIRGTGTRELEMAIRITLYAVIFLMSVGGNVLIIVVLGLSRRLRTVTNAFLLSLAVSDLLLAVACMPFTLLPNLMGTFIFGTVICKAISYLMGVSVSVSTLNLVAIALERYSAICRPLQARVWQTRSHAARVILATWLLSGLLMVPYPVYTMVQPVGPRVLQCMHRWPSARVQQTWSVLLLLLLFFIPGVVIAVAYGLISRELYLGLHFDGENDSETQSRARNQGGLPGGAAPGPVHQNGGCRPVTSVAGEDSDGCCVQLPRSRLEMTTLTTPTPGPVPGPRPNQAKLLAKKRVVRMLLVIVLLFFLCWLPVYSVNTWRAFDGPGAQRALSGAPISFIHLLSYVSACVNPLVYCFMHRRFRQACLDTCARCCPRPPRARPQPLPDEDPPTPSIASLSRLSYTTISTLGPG
# [4] = target: T1, Gastrin/cholecystokinin type B receptor; experiment: Binding affinity at human CCK2 receptor
# [5] = target: T2, Cholecystokinin receptor type A; experiment: Binding affinity to human CCK1 receptor
# [6] = target: T4, Cholecystokinin receptor type A (Cavia porcellus) (UniProt Q63931); experiment: Agonist activity at CCK1 receptor assessed as stimulation of contraction in guinea pig gallbladder at 30 uM relative to CCK8; assay type: functional
# T4 sequence (whole entry): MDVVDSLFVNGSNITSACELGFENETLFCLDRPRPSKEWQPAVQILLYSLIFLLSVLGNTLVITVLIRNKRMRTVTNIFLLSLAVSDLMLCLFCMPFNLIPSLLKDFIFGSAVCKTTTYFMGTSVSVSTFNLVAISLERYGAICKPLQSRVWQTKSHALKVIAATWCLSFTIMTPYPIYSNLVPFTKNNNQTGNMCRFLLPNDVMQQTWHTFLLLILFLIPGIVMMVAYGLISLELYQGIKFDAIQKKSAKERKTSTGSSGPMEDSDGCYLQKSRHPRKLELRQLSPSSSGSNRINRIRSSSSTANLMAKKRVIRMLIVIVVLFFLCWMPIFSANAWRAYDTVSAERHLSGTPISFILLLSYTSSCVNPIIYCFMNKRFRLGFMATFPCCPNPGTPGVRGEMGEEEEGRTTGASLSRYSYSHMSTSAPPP
# [7] = target: T5, Cholecystokinin receptor type A (Cavia porcellus, UniProt Q63931); experiment: (§1) Agonist activity at CCK1 receptor assessed as stimulation of contraction in guinea pig gallbladder; assay type: functional
# T5 sequence (Q63931 whole entry): T4 sequence (whole entry)
# [8] = target: T6, Gastrin/cholecystokinin type B receptor (Mus musculus, UniProt P56481); experiment: Binding affinity to mouse CCK2 receptor
# T6 sequence (P56481 whole entry): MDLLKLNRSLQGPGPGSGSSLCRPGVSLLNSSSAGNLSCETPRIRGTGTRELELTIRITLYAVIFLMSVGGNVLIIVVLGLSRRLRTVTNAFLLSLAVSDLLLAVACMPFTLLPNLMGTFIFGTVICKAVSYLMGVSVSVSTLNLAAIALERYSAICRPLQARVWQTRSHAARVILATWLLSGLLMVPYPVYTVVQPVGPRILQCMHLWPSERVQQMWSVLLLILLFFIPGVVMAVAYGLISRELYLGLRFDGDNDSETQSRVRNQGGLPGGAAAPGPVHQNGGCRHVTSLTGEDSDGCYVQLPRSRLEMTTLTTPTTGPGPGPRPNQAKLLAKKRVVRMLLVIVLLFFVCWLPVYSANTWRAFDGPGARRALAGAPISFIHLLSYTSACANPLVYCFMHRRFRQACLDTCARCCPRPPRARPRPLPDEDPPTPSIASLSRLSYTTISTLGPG
# [9] = target: T7, Cholecystokinin receptor type A (Mus musculus, UniProt O08786); experiment: Binding affinity to mouse CCK1 receptor
# T7 sequence (O08786 whole entry): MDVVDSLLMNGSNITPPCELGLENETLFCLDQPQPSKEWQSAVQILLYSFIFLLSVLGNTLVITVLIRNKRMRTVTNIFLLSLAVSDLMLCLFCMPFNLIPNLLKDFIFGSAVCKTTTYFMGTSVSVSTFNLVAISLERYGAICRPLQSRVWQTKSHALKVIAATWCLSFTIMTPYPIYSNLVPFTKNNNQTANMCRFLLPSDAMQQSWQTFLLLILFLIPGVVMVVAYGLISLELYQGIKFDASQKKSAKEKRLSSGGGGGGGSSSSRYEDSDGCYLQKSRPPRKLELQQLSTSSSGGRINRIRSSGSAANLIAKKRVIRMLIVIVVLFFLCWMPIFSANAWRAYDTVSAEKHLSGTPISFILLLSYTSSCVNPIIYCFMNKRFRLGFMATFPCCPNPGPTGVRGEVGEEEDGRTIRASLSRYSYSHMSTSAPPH
# [10] = target: T4, Cholecystokinin receptor type A (Cavia porcellus); experiment: as §1; assay type: functional
smiles,measurement,setting,value
Cc1cccc(NC(=O)CN2C(=O)N(CC(=O)N3CCCC3)c3ccccc3N(C3CCCCCC3)C2=O)c1,Ki,[1],23.4 nM
same,Ki,[2],617 nM
same,Activity,[3],inactive
Cc1cccc(NC(=O)CN2C(=O)N(CC(=O)C(C)(C)C)c3ccccc3N(C3CCCCCC3)C2=O)c1,Ki,[1],7.59 nM
same,Ki,[2],447 nM
CNc1cccc(NC(=O)N[C@@H]2N=C(c3ccccn3)c3ccccc3N(CC(=O)C(C)(C)C)C2=O)c1 [NETAZEPIDE],Ki,[4],0.0794 nM
same,Ki,[5],31.6 nM
O=C(CN1C(=O)N(CC(=O)N2CCCC2)c2ccccc2N(c2ccccc2)C1=O)Nc1cccc(C(=O)O)c1,Ki,[1],380 nM
same,Ki,[2],> 10000 nM
CC(C)N(C(=O)CN1C(=O)C(NC(=O)Nc2ccccc2)C(=O)N(c2ccccc2)c2ccccc21)c1ccccc1 (centres undefined),Activity,[6],86%
CC(C)N(C(=O)CN1C(=O)C(CC(=O)Nc2ccccc2)C(=O)N(c2ccccc2)c2ccccc21)c1ccccc1 (centres undefined),Activity,[6],50%
same,EC50,[7],398 nM
same,Ki,[4],794 nM
same,Ki,[5],158 nM
Cc1cccc(NC(=O)NC2C(=O)N(CC(=O)N3CCCC3)c3ccccc3N(CC(=O)N3CCCC3)C2=O)c1,IC50,[8],50.1 nM
same,IC50,[9],794 nM
CC(C)(C)C(=O)CN1C(=O)N(CC(=O)Nc2cccc(SCC(=O)O)c2)C(=O)N(C2CCCCCC2)c2ccccc21,Ki,[1],0.891 nM
same,Ki,[2],282 nM
CC(C)(C)C(=O)CN1C(=O)N(CC(=O)Nc2cccc(CC(=O)O)c2)C(=O)N(C2CCCCCC2)c2ccccc21,Ki,[1],3.16 nM
same,Ki,[2],3890 nM
CC(C)(C)C(=O)CN1C(=O)N(CC(=O)Nc2cccc(-c3nc(=O)o[nH]3)c2)C(=O)N(C2CCCCC2)c2ccccc21,Ki,[1],1.2 nM
same,Ki,[2],316 nM
O=C(CN1C(=O)N(CC(=O)N2CCCC2)c2ccccc2N(c2ccccc2)C1=O)Nc1ccccc1,Ki,[1],1000 nM
same,Ki,[2],> 10000 nM
CC(C)N(C(=O)CN1C(=O)C(NC(=O)Nc2cccc(C(=O)O)c2)C(=O)N(c2ccccc2)c2ccccc21)c1ccccc1 (centres undefined),Activity,[6],102%
same,EC50,[7],39.8 nM
same,Ki,[4],10 nM
same,Ki,[5],126 nM
CC(C)(C)C(=O)CN1C(=O)N(CC(=O)Nc2cccc(C(=O)O)c2)N=C(C2CCCCC2)c2ccccc21,Ki,[4],1 nM
same,Ki,[5],10000 nM
CC(C)(C)C(=O)CN1C(=O)N(CCCC(=O)Nc2cccc(-c3nc(=O)o[nH]3)c2)C(=O)N(C2CCCCC2)c2ccccc21,Ki,[1],20.9 nM
same,Ki,[2],72.4 nM
CNc1cccc(NC(=O)CN2C(=O)N(CC(=O)C(C)(C)C)c3ccccc3N(C3CCCCC3)C2=O)c1,Ki,[1],9.55 nM
same,Ki,[2],2340 nM
CC(C)(C)C(=O)CN1C(=O)N(CC(=O)Nc2cccc(-c3nc(=O)o[nH]3)c2)C(=O)N(C2CCCCCC2)c2ccccc21,Ki,[1],0.427 nM
same,Ki,[2],117 nM
CN(C(=O)CN1C(=O)C(NC(=O)Nc2ccccc2)C(=O)N(c2ccccc2)c2ccccc21)c1ccccc1 (centres undefined),Activity,[6],inactive
same,pKb,[10],6.3
Cc1nc(-c2cccc(NC(=O)CN3C(=O)N(CC(=O)C(C)(C)C)c4ccccc4N(C4CCCCC4)C3=O)c2)cs1,Ki,[1],9.55 nM
same,Ki,[2],1550 nM
CC(C)(C)C(=O)CN1C(=O)N(CC(=O)Nc2cccc(CCC(=O)O)c2)C(=O)N(C2CCCCC2)c2ccccc21,Ki,[1],6.31 nM
same,Ki,[2],2340 nM
CN(c1cccc(NC(=O)CN2C(=O)N(CC(=O)C(C)(C)C)c3ccccc3N(C3CCCCC3)C2=O)c1)c1nn[nH]n1,Ki,[1],4.27 nM
same,Ki,[2],2090 nM
